Test results as given in patent publication US8709420B2 (GlaxoSmithKline Intellectual Property Limited, priority 2010, dated 2014).
Converted amounts (≈) assume the structure as drawn.

Tested on: HUVEC
Assay: In-vitro cytotoxicity, Alamar Blue cell viability
Format: cell-based
Details: Homo sapiens, 72 h treatment, read-out: IC50, reduction in viability of HUVEC cells
Text: SK-N-BE(2) (MYCN amplified) and SH-SY5Y (non-MYCN amplified neuroblastoma cell lines) were obtained from American Type Culture Collection (ATCC) (Manassas, Va.); BE(2)-c sub-clone of SK-N-BE(2) was obtained from Dr. Michelle Haber (Children's Cancer Institute for Medical Research, Lowry Cancer Research Centre, Randwick, Australia); Human Umbilical Vein Endothelial Cells (HUVECs) were obtained from Dr. Herman Yeger (The Hospital for Sick Children, Toronto, Ontario, Canada) and Tumor Initiating (TIC) cell lines NB12 and NB88, were obtained from Dr. David Kaplan (The Hospital for Sick Children, Toronto, Ontario, Canada).
Cell viability was determined by Alamar Blue assay. Alamar blue (10% of total volume was added to each well three hours prior to fluorometric detection). Fluorometric detection was performed using the SPECTRAmax gemini Spectrophotometer at excitation wavelength of 540 nm and emission wavelength of 590 nm.

CC[C@@]1(O)C(=O)OCc2c1cc1n(c2=O)Cc2cc3c(CN(C)C)c(O)ccc3nc2-1 [topotecan]
IC50: 4.87 ng/mL (≈ 0.0116 µM)
